Reference: article PMC5362750, “Discovery of Potent, Selective, and Orally Bioavailable Small-Molecule Modulators of the Mediator Complex-Associated Kinases CDK8 and CDK19” (Journal of Medicinal Chemistry, 2016)
Where two headings read alike, the source gives them in different places.

Assays:
NK1 (h) = NK1 (h) (Homo sapiens, UniProt P25103); experiment: CEREP binding assay; conditions: agonist radioligand, read-out: % Inhibition of Control Specific Binding
PKG1ALPHA = PKG1ALPHA (Homo sapiens, UniProt Q13976); experiment: Kinase panel (Millipore); format: biochemical; conditions: 1 µM, ATP at Km
PKG1ALPHA, sequence (Q13976 whole entry): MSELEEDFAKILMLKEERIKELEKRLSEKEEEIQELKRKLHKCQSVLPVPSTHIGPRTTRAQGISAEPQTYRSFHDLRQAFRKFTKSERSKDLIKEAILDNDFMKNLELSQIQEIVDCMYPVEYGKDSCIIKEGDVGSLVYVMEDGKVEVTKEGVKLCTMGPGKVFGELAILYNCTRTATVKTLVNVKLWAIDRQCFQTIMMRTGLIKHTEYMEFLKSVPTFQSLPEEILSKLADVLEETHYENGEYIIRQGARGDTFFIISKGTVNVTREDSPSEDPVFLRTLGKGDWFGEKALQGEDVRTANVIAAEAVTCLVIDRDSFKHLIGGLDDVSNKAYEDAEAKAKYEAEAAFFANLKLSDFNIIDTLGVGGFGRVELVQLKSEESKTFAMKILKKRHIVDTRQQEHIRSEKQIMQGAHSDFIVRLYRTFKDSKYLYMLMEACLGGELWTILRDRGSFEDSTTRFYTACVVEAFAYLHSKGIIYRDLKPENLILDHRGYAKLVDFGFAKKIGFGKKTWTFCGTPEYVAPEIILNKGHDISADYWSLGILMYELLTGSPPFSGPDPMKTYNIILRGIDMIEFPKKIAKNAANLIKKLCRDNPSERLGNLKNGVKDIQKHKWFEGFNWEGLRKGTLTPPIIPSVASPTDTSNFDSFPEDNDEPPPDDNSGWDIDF

GR (h) = biological target: T1, GR (h) (Homo sapiens, UniProt P04150); experiment: CEREP binding assay; conditions: agonist radioligand, read-out: % Inhibition of Control Specific Binding
T1 construct: CEREP
T1 sequence (P04150 whole entry): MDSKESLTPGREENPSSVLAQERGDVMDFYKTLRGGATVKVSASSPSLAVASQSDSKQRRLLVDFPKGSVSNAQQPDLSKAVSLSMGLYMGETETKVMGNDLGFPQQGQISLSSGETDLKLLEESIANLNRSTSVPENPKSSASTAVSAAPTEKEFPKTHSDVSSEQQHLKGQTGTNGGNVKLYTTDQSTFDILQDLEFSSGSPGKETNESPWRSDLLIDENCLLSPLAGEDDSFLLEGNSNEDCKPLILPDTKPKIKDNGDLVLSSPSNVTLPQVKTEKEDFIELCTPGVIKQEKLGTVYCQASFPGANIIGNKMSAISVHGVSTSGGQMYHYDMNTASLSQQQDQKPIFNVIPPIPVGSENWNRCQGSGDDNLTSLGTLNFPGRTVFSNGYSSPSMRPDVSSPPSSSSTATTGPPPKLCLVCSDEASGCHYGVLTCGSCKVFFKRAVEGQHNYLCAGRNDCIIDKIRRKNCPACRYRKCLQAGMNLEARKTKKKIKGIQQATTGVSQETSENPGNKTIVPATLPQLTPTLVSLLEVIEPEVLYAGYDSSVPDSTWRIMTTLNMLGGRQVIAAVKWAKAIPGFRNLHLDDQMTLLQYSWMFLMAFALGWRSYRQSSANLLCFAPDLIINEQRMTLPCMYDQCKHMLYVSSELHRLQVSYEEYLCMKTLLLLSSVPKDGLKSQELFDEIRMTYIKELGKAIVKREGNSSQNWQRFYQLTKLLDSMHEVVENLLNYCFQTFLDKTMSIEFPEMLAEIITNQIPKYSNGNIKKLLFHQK

PRKCQ = biological target: T2, PRKCQ (Homo sapiens, UniProt Q04759); experiment: Kinase panel (Millipore); format: biochemical; conditions: 1 µM, ATP at Km
T2 construct: purchased Millipore (KinaseProfiler) kinase panel

sst1 (h) = sst1 (h) (Homo sapiens, UniProt P30872); experiment: CEREP binding assay; conditions: agonist radioligand, read-out: % Inhibition of Control Specific Binding
DYRK2 = DYRK2 (Homo sapiens, UniProt Q92630); experiment: Kinase panel (Millipore); format: biochemical; conditions: 1 µM, ATP at Km
FGFR4 = FGFR4 (Homo sapiens, UniProt P22455); experiment: Kinase panel (Millipore); format: biochemical; conditions: 1 µM, ATP at Km
CDK9/CYCLINT1 = CDK9/CYCLINT1 (Homo sapiens, UniProt P50750); conditions: 1 µM, ATP at Km
PKA = PKA (Homo sapiens, UniProt P17612); experiment: Kinase panel (Millipore); format: biochemical; conditions: 1 µM, ATP at Km
CKIT(V560G) = CKIT(V560G) (Homo sapiens, UniProt P10721, V560G); conditions: 1 µM, ATP at Km
CKIT(V560G), sequence (P10721 544-976 V560G limits assumed): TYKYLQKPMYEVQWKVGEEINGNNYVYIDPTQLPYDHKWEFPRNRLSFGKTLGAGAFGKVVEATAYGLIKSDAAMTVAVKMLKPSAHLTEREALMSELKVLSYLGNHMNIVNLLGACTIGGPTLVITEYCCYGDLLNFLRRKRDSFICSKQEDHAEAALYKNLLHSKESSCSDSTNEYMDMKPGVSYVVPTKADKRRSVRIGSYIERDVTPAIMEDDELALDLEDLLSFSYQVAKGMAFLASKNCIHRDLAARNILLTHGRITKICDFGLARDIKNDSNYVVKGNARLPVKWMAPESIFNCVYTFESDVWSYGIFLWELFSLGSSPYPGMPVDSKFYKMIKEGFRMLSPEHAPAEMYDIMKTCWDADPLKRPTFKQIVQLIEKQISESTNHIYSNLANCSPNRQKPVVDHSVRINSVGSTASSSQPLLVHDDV

SYK = SYK (Homo sapiens, UniProt P43405); experiment: Kinase panel (Millipore); format: biochemical; conditions: 1 µM, ATP at Km
WNK2 = biological target: T3, WNK2 (Homo sapiens, UniProt Q9Y3S1); experiment: Kinase panel (Millipore); format: biochemical; conditions: 1 µM, ATP at Km
T3 construct: purchased Millipore (KinaseProfiler) kinase panel

CHK2(I157T) = CHK2(I157T) (Homo sapiens, UniProt O96017, I157T); conditions: 1 µM, ATP at Km
CHK2(I157T), sequence (O96017 5-543 I157T limits assumed): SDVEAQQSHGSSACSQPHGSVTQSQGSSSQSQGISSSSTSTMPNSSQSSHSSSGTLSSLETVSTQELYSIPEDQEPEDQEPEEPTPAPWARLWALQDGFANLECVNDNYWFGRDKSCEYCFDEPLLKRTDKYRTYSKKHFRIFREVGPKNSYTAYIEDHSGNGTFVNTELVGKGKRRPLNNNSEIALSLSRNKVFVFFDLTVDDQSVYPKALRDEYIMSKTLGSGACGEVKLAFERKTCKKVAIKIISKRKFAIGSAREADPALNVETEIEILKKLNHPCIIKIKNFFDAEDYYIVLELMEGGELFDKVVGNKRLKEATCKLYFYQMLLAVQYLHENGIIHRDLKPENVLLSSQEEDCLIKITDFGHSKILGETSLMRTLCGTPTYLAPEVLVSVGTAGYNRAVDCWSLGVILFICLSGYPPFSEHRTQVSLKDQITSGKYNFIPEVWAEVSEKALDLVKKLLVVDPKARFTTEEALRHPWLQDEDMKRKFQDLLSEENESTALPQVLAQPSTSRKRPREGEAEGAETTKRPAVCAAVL

CDK6/CYCLIND3 = CDK6/CYCLIND3 (Homo sapiens, UniProt Q00534); conditions: 1 µM, ATP at Km
PI3K BETA = PI3K BETA (Homo sapiens, UniProt P42338); experiment: Kinase panel (Millipore); format: biochemical; conditions: 1 µM, ATP at Km
FMS = biological target: T4, FMS (Homo sapiens, UniProt P07333); experiment: Kinase panel (Millipore); format: biochemical; conditions: 1 µM, ATP at Km
T4 construct: purchased Millipore (KinaseProfiler) kinase panel

PKCETA = biological target: T5, PKCETA (Homo sapiens, UniProt P24723); experiment: Kinase panel (Millipore); format: biochemical; conditions: 1 µM, ATP at Km
T5 construct: purchased Millipore (KinaseProfiler) kinase panel
T5 sequence (P24723 whole entry): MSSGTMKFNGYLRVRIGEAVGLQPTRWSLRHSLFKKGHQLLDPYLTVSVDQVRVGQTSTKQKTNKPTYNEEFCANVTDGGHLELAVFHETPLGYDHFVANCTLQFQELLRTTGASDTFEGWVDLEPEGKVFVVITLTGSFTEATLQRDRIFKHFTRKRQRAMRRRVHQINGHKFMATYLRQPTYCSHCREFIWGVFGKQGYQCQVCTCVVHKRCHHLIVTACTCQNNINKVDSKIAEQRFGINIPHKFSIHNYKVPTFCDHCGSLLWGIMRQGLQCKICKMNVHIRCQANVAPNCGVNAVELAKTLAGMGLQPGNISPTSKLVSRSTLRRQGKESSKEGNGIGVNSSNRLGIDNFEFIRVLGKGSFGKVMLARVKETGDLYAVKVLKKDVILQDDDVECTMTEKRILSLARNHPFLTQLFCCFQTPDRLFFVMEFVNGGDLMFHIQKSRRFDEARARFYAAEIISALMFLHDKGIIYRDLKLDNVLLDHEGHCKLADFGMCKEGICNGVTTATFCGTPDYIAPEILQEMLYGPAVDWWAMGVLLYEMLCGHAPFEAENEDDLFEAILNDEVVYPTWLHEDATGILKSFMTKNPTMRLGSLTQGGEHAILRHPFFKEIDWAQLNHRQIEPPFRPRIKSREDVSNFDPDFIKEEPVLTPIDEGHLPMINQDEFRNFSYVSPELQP

alpha 2C (h) = alpha 2C (h) (Homo sapiens, UniProt P18825); experiment: biochemical; conditions: read-out: % Inhibition of Control Specific Binding
ABL(Y253F) = ABL(Y253F) (Homo sapiens, UniProt P00519, Y253F); conditions: 1 µM, ATP at Km
[1] = test system: glycine (strychnine-insensitive); conditions: 10 µM, antagonist radioligand
GRK7 = GRK7 (Homo sapiens, UniProt Q8WTQ7); experiment: Kinase panel (Millipore); format: biochemical; conditions: 1 µM, ATP at Km
GRK7, sequence (Q8WTQ7 whole entry): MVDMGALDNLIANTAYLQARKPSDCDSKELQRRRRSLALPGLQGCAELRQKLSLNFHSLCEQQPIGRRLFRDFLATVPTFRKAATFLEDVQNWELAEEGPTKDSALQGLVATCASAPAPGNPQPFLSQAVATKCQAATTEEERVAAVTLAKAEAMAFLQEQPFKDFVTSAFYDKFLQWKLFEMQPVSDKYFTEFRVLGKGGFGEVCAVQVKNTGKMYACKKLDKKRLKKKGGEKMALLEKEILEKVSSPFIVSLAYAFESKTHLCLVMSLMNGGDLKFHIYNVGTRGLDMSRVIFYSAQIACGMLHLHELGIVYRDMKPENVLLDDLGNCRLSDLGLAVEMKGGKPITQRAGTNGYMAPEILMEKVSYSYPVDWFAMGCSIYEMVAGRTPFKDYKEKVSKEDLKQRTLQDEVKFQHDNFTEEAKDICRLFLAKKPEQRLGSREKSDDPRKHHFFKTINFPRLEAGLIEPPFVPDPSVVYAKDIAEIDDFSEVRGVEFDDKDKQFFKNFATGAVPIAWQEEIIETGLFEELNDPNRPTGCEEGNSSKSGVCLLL

NEK3 = biological target: T6, NEK3 (Homo sapiens, UniProt P51956); experiment: Kinase panel (Millipore); format: biochemical; conditions: 1 µM, ATP at Km
T6 construct: purchased Millipore (KinaseProfiler) kinase panel

RY3 (ryanodine) = conditions: 10 µM, agonist radioligand
ALK4 = biological target: T7, ALK4 (Homo sapiens, UniProt P36896); experiment: Kinase panel (Millipore); format: biochemical; conditions: 1 µM, ATP at Km
T7 construct: purchased Millipore (KinaseProfiler) kinase panel

PLK3 = biological target: T8, PLK3 (Homo sapiens, UniProt Q9H4B4); experiment: Kinase panel (Millipore); format: biochemical; conditions: 1 µM, ATP at Km
T8 construct: purchased Millipore (KinaseProfiler) kinase panel

MAPKAP-K3 = biological target: T9, MAPKAP-K3 (Homo sapiens, UniProt Q16644); experiment: Kinase panel (Millipore); format: biochemical; conditions: 1 µM, ATP at Km
T9 construct: purchased Millipore (KinaseProfiler) kinase panel
T9 sequence (Q16644 whole entry): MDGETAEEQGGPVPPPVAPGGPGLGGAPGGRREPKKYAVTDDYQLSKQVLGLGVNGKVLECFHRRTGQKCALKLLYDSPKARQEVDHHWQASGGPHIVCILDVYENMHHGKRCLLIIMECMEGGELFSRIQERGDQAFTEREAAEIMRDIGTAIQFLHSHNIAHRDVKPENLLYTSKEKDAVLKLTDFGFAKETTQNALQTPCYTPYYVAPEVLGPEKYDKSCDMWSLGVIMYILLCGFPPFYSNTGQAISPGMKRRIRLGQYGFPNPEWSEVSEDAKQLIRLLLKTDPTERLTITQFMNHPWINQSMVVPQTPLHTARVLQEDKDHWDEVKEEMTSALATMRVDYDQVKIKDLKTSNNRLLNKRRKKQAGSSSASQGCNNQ

[2] = human
JAK2 = biological target: T10, JAK2 (Homo sapiens, UniProt O60674); experiment: Kinase panel (Millipore); format: biochemical; conditions: 1 µM, ATP at Km
T10 construct: purchased Millipore (KinaseProfiler) kinase panel

MSSK1 = biological target: T11, MSSK1 (Homo sapiens, UniProt Q9UPE1); experiment: Kinase panel (Millipore); format: biochemical; conditions: 1 µM, ATP at Km
T11 construct: purchased Millipore (KinaseProfiler) kinase panel

IRAK4 = IRAK4 (Homo sapiens, UniProt Q9NWZ3); experiment: Kinase panel (Millipore); format: biochemical; conditions: 1 µM, ATP at Km
PKCZETA = biological target: T12, PKCZETA (Homo sapiens, UniProt Q05513); experiment: Kinase panel (Millipore); format: biochemical; conditions: 1 µM, ATP at Km
T12 construct: purchased Millipore (KinaseProfiler) kinase panel

cMET (Y1248C) = cMET (Y1248C) (Homo sapiens, UniProt P08581, Y1230C); conditions: 1 µM, ATP at Km
CysLT1 (LTD4) (h) = biological target: T13, CysLT1 (LTD4) (h) (Homo sapiens, UniProt Q9Y271); experiment: CEREP binding assay; conditions: agonist radioligand, read-out: % Inhibition of Control Specific Binding
T13 construct: purchased Millipore (KinaseProfiler) kinase panel

MKK7BETA = biological target: T14, MKK7BETA (Homo sapiens, UniProt O14733); experiment: Kinase panel (Millipore); format: biochemical; conditions: 1 µM, ATP at Km
T14 construct: purchased Millipore (KinaseProfiler) kinase panel

HIPK3 = biological target: T15, HIPK3 (Homo sapiens, UniProt Q9H422); experiment: Kinase panel (Millipore); format: biochemical; conditions: 1 µM, ATP at Km
T15 construct: purchased Millipore (KinaseProfiler) kinase panel

FES = FES (Homo sapiens, UniProt P07332); experiment: Kinase panel (Millipore); format: biochemical; conditions: 1 µM, ATP at Km
FES, sequence (P07332 whole entry): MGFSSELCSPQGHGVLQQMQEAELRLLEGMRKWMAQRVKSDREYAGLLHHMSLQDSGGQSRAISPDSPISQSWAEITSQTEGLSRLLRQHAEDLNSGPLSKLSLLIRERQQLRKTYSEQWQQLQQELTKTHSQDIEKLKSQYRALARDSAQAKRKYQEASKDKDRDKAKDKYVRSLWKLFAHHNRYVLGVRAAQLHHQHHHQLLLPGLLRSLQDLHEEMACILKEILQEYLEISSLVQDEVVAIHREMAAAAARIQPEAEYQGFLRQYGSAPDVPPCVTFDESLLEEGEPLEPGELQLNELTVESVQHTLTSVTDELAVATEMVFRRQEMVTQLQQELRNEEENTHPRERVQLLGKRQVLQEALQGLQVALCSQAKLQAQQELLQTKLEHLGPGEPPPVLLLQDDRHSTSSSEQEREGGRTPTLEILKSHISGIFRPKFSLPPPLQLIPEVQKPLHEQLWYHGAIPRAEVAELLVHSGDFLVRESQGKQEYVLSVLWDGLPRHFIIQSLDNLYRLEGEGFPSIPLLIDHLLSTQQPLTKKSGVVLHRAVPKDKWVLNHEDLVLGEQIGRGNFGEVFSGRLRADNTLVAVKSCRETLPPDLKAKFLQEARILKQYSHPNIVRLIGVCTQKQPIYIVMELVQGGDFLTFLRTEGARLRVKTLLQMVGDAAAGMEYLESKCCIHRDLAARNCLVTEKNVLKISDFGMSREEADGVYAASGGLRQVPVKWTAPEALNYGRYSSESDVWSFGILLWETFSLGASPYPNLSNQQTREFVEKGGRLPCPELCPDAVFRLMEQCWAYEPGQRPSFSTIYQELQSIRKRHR

RET = biological target: T16, RET (Homo sapiens, UniProt P07949); experiment: Kinase panel (Millipore); format: biochemical; conditions: 1 µM, ATP at Km
T16 construct: purchased Millipore (KinaseProfiler) kinase panel

With `Cn1ncc2cc(-c3cnc(N)c(Cl)c3N3CCC4(CCNC4=O)CC3)ccc21` [Compound 109, 8-(2-Amino-3-chloro-5-(1-methyl-1H-indazol-5-yl)pyridin-4-yl)-2,8-diazaspiro[4.5]decan-1-one] the inhibition at 10 µM (NK1 (h)) was 25%, the “% effect” value (PKG1ALPHA) was 23% and the inhibition at 10 µM (GR (h)) was -1%. For the same compound, the “% effect” value (PRKCQ) was -13%, the inhibition at 10 µM (sst1 (h)) was -4% and the “% effect” value (DYRK2) was -9%. The “% effect” value (FGFR4) was 6%, the “% effect” value (CDK9/CYCLINT1) was -8% and the “% effect” value (PKA) was 25%. The “% effect” value (CKIT(V560G)) was -5%, the “% effect” value (SYK) was 2% and the “% effect” value (WNK2) was 27%. The “% effect” value (CHK2(I157T)) was -5%, the “% effect” value (CDK6/CYCLIND3) was 5% and the “% effect” value (PI3K BETA) was 2%. The Cl (human) was “∼0.36 L/h/kg”, the F (human) was “∼70%” and the Vd (human) was “∼1.4 L/kg”. The “clearance prediction, allometry with correction by fu and BrW” value (human) was 5.72 mL/min/kg, the “clearance prediction, allometry with correction by fu and MLP” value (human) was 8.52 mL/min/kg and the “clearance prediction, iviv from hepatocytes” value (human) was 3.58 mL/min/kg. The “volume prediction, range of allometry methods” value (human) was 1.3 to 1.5 L/kg, the t1/2 (human prediction) was “∼2.7 h” and the “% effect” value (FMS) was -23%. The “% effect” value (PKCETA) was 6%, the inhibition at 10 µM (alpha 2C (h)) was 25% and the “% effect” value (ABL(Y253F)) was 1%. For the same compound, the “% Inhibition of Control Specific Binding” value [1] was -3%, the “% effect” value (GRK7) was -1% and the “% effect” value (NEK3) was -11%. For the same compound, the “% Inhibition of Control Specific Binding” value (RY3 (ryanodine)) was 1%, the “% effect” value (ALK4) was 2% and the “% effect” value (PLK3) was -2%. The “% effect” value (MAPKAP-K3) was 5%, the Vd [2] was 1.4 L/kg and the clearance [2] was 6 mL/min/kg. For the same compound, the “% effect” value (JAK2) was -20%, the “% effect” value (MSSK1) was -1% and the “% effect” value (IRAK4) was 6%. For the same compound, the “% effect” value (PKCZETA) was 1%, the “% effect” value (cMET (Y1248C)) was -3% and the inhibition at 10 µM (CysLT1 (LTD4) (h)) was 12%. For the same compound, the “% effect” value (MKK7BETA) was -15%, the “% effect” value (HIPK3) was 18% and the “% effect” value (FES) was -6%. For the same compound, the “% effect” value (RET) was 7%.
